According to patent US20260130933A1, “PHARMACEUTICAL COMPOSITION FOR PREVENTION OR TREATMENT OF NEPHROPATHY AND/OR DIABETES MELLITUS, COMPRISING ENAVOGLIFLOZIN” (DAEWOONG PHARMACEUTICAL CO., LTD., priority 2022, published 2026):

Assay: Example 3: phase 3 trial, enavogliflozin 0.3 mg vs dapagliflozin 10 mg once a day for 24 weeks added to metformin and gemigliptin in patients with type 2 diabetes (same endpoints, rescue drug)
Assay type: in vivo, human
Conditions: week 24
Description: 1) when Metformin (≥1,000 mg/Day) was Administered at a Constant Dose for at Least 8 Weeks Prior to Pre-Visit (Pre-Screening) • Metformin (≥1,000 mg/day) and gemigliptin (50 mg/day) were co-administered during the 8-week stabilization period. […] 4) when Metformin (≥1,000 mg/Day) and Gemigliptin (50 mg/Day) were Co-Administered at Constant Doses for at Least 8 Weeks Prior to Pre-Visit (Prescreening) • Without a separate stabilization period, Pre-visit (pre-screening) was Visit 1 (screening).
Subjects who met the inclusion/exclusion criteria continued to receive metformin and gemigliptin while receiving a placebo of the clinical trial drug in a single-blind (subject-blinded) state for a 2-week run-in period.
Here, the randomized subjects were stratified according to the administration therapy (co-administration with two or less agents (one or two agents) or three or more agents) of a conventional hypoglycemic agent (before washout of another hypoglycemic agent) within 24 weeks prior to obtaining written informed consent and by an HbA1c value (<8% or ≥8%) at Visit 1 (screening) measured in the central laboratory.
The randomized subjects were administered two tablets of the clinical trial drug corresponding to each administration group once a day, and then visited the institution at weeks 6, 12, 18, and 24 during the 24-week administration period to conduct efficacy and safety assessments. In addition, during the clinical trial period, they were instructed to exercise regularly and control their diet without changing their daily life patterns.
• 1) Change in HbA1c at week 24 after administration of clinical trial drug compared to Visit 2 (randomization)
• 1) Change in HbA1c at each time point of weeks 6, 12, and 18 after administration of clinical trial drug compared to Visit 2 (randomization) • 2) Change in FPG at each time point of weeks 6, 12, 18, and 24 after administration of clinical trial drug compared to Visit 2 (randomization) • 3) Proportion of subjects achieving HbA1c<7% at each time point of weeks 6, 12, 18, and 24 after administration of clinical trial drug • 4) Proportion of subjects achieving HbA1c<6.5% at each time point of weeks 6, 12, 18, and 24 after administration of clinical trial drug • 5) Proportion of subjects achieving therapeutic response (HbA1c change (HbA1c at Visit 2—HbA1c at each evaluation time point)>0.5% or HbA1c<7% at each evaluation time point compared to Visit 2 (randomization)) at each time point of weeks 6, 12, 18, and 24 after administration of clinical trial drug • 6) Proportion of subjects achieving therapeutic response (HbA1c change (HbA1c at Visit 2—HbA1c at each evaluation time point)>0.7% or HbA1c<7% at each evaluation time point compared to Visit 2 (randomization)) at each time point of weeks 6, 12, 18, and 24 after administration of clinical trial drug • 7) Proportion of subjects achieving therapeutic response (HbA1c change (HbA1c at Visit 2—HbA1c at each evaluation time point)>1% or HbA1c<7% at each evaluation time point compared to Visit 2 (randomization)) at each time point of weeks 6, 12, 18, and 24 after administration of clinical trial drug

[1] = modified per-protocol set 2, enavogliflozin 0.3 mg, dapagliflozin 10 mg
[2] = per-protocol set, enavogliflozin 0.3 mg vs dapagliflozin 10 mg
[3] = per-protocol set, enavogliflozin 0.3 mg, dapagliflozin 10 mg

Compound: OC[C@H]1O[C@@H](c2cc(Cc3ccc(C4CC4)cc3)c(Cl)c3c2CCO3)[C@H](O)[C@@H](O)[C@@H]1O [Enavogliflozin, (2S,3R,4R,5S,6R)-2-(7-chloro-6 (4-cyclopropylbenzyl)-2,3-dihydrobenzofuran-4-yl)-6-(hydroxymethyl)tetrahydro-2H-pyran-3,4,5-triol]
- Change from baseline in diastolic blood pressure, Median (modified per-protocol set 2): −3.00 mmHg
- Diastolic blood pressure, Mean (modified per-protocol set 2): 73.40 mmHg
- Diastolic blood pressure, Median (modified per-protocol set 2): 73.50 mmHg
- Change from baseline in systolic blood pressure, ANCOVA LS mean difference (modified per-protocol set 2, enavogliflozin 0.3 mg vs dapagliflozin 10 mg): −0.22 mmHg
- Change from baseline in systolic blood pressure, ANCOVA LS mean [1]: −4.49 mmHg
- Change from baseline in systolic blood pressure, Mean [1]: −5.20 mmHg
- Change from baseline in systolic blood pressure, Median [1]: −5.00 mmHg
- Systolic blood pressure, Mean [1]: 122.29 mmHg
- Systolic blood pressure, Median [1]: 121.00 mmHg
- Adiponectin, Mean (per-protocol set): 7.62 µg/mL
- Adiponectin, Median (per-protocol set): 6.49 µg/mL
- Change from baseline in HOMA-IR, ANCOVA LS mean (per-protocol set): −1.09
- Change from baseline in HOMA-IR, LS mean difference (enavogliflozin − dapagliflozin) (per-protocol set): −0.16
- Change from baseline in HOMA-IR, Mean (per-protocol set): −1.07
- Change from baseline in HOMA-IR, Median (per-protocol set): −0.80
- Change from baseline in HOMA-β, ANCOVA LS mean (per-protocol set): 1.09
- Change from baseline in HOMA-β, LS mean difference (enavogliflozin − dapagliflozin) (per-protocol set): −4.69
- Change from baseline in HOMA-β, Mean (per-protocol set): 2.57
- Change from baseline in HOMA-β, Median (per-protocol set): 5.70
- Change from baseline in UACR, ANCOVA LS mean (per-protocol set): -15.34 g/kg
- Change from baseline in UACR, LS mean difference (enavogliflozin − dapagliflozin) (per-protocol set): 0.79 g/kg
- Change from baseline in UACR, Mean (per-protocol set): -19.52 g/kg
- Change from baseline in UACR, Median (per-protocol set): -1.55 g/kg
- Change from baseline in UGCR, ANCOVA LS mean (per-protocol set): 60.22 mg/mg
- Change from baseline in UGCR, LS mean difference (enavogliflozin − dapagliflozin) (per-protocol set): 16.71 mg/mg
- Change from baseline in UGCR, Mean (per-protocol set): 59.39 mg/mg
- Change from baseline in UGCR, Median (per-protocol set): 55.98 mg/mg
- Change from baseline in adiponectin, ANCOVA LS mean (per-protocol set): 1.42 µg/mL
- Change from baseline in adiponectin, LS mean difference (enavogliflozin − dapagliflozin) (per-protocol set): 0.49 µg/mL
- Change from baseline in adiponectin, Mean (per-protocol set): 1.39 µg/mL
- Change from baseline in adiponectin, Median (per-protocol set): 1.11 µg/mL
- Change from baseline in leptin, ANCOVA LS mean (per-protocol set): -1.46 ng/mL
- Change from baseline in leptin, LS mean difference (enavogliflozin − dapagliflozin) (per-protocol set): -0.89 ng/mL
- Change from baseline in leptin, Mean (per-protocol set): -1.52 ng/mL
- Change from baseline in leptin, Median (per-protocol set): -0.91 ng/mL
- HOMA-IR (insulin resistance), Mean (per-protocol set): 1.84
- HOMA-IR (insulin resistance), Median (per-protocol set): 1.56
- HOMA-β (beta-cell function), Mean (per-protocol set): 45.48
- HOMA-β (beta-cell function), Median (per-protocol set): 41.40
- Leptin, Mean (per-protocol set): 8.95 ng/mL
- Leptin, Median (per-protocol set): 6.03 ng/mL
- UACR, Mean (per-protocol set): 27.90 g/kg
- UACR, Median (per-protocol set): 11.10 g/kg
- UGCR, Mean (per-protocol set): 60.12 mg/mg
- UGCR, Median (per-protocol set): 57.96 mg/mg
- Achieving HbA1c target of <6.5%, odds ratio (logistic regression model) [2]: 1.27
- Achieving HbA1c target of <7%, odds ratio (logistic regression model) [2]: 1.17
- Change from baseline in FPG, ANCOVA LS mean difference [2]: -3.49 mg/dL
- Change from baseline in body weight, ANCOVA LS mean difference [2]: -0.15 kg
- Change from baseline in fasting C-peptide, ANCOVA LS mean difference [2]: -0.01 ng/mL
- Therapeutic glycemic response 1, odds ratio (logistic regression model) [2]: 1.15
- Therapeutic glycemic response 2, odds ratio (logistic regression model) [2]: 0.98
- Therapeutic glycemic response 3, odds ratio (logistic regression model) [2]: 1.22
- Body weight, Mean [3]: 66.19 kg
- Change from baseline in FPG, ANCOVA LS mean [3]: -27.21 mg/dL
- Change from baseline in FPG, Mean [3]: -26.31 mg/dL
- Change from baseline in FPG, Median [3]: -20.00 mg/dL
- Change from baseline in body weight, ANCOVA LS mean [3]: -3.15 kg
- Change from baseline in body weight, Mean [3]: -3.09 kg
- Change from baseline in body weight, Median [3]: -3.00 kg
- Change from baseline in fasting C-peptide, ANCOVA LS mean [3]: -0.09 ng/mL
- Change from baseline in fasting C-peptide, Mean [3]: -0.09 ng/mL
- Change from baseline in fasting C-peptide, Median [3]: -0.07 ng/mL
- FPG, Mean [3]: 113.03 mg/dL
- FPG, Median [3]: 110.00 mg/dL
- Fasting C-peptide, Mean [3]: 0.64 ng/mL
- Fasting C-peptide, Median [3]: 0.63 ng/mL
- Subjects achieving HbA1c target of <6.5%, (%) [3]: 21.01%
- Subjects achieving HbA1c target of <7%, % [3]: 66.39%
- body weight, Median [3]: 65.10 kg
- Subjects achieving therapeutic glycemic response 1, % (per-protocol set, response 1 = HbA1c change >0.5% or HbA1c <7%, enavogliflozin 0.3 mg, dapagliflozin 10 mg): 86.55%
- Subjects achieving therapeutic glycemic response 2, % (per-protocol set, response 2 = HbA1c change >0.7% or HbA1c <7%, enavogliflozin 0.3 mg, dapagliflozin 10 mg): 81.51%
- Subjects achieving therapeutic glycemic response 3, % (per-protocol set, response 3 = HbA1c change >1% or HbA1c <7%, enavogliflozin 0.3 mg, dapagliflozin 10 mg): 78.15%
